Laboratory results: patent US5468587A, “Hydrogen bond accepting groups on thermal solvents for image separation systems” (Eastman Kodak Company, priority 1993, dated 1995)

Experiments:
[1] = heat activated transfer of image dye (yellow coupler Y-1, developer CD-3) through gelatin interlayer to polymeric dye receiver, Status A blue density; details: 3 passes; coupler Y-1, CD-3
Protocol: (§1) Heat Activated Image Transfer. Dried integral films are laminated with gelatin subbed ESTAR™ film base and passed through a set of heated rollers at 0.635 cm./sec. with roller surface temperatures of 110° C. and a pressure of 140 kPa. The two film bases are separated; the gelatin layers adhere to the gelatin subbed ESTAR™ base and are thus separated from the polymeric dye receiver layer and its support. Status A reflection densitometry is obtained on the polymeric dye-receiver layer coated on a reflective support. These density values determined with the appropriate Status A filter are given in Example 1 in Table III.
Thermal Solvent Test Employing a Yellow Dye Forming Coupler. Three film examples are prepared in a manner analogous to examples 1 and 2 above, using a yellow dye forming coupler, Y-1, and a blue sensitized cubic emulsion in place of M-1 and a green sensitized emulsion, respectively. […]
For all three example films the dye density transferred to the dye-receiverlayer in the absence of a thermal processing step (0-pass) is quite small indicating the absence of significant transfer under aqueous processing. […] For film example 15 in which the interlayer contains both gelatin and the thermal test material, TS-1, there is a substantial transfer of image dye as measured by the blue density. […]

[2] = heat activated transfer of image dye (yellow coupler Y-1, developer CD-2) through gelatin interlayer to polymeric dye receiver, Status A blue density; details: coupler Y-1, CD-2
Protocol: as §1
Thermal Solvent Test Employing a Yellow Dye Forming Coupler. Three film examples are prepared in a manner analogous to examples 1 and 2 above, using a yellow dye forming coupler, Y-1, and a blue sensitized cubic emulsion in place of M-1 and a green sensitized emulsion, respectively. In this example TS-1 is compared with no added hydroxybenzene compound and with a hydroxybenzene without a hydrogen bond accepting functional group (CS-1). The thermal solvent [drawing 8] test layer is coated at gelatin laydown of 1.40 g/m^2 and a thermal solvent test compound at 1.30 g/m^2. The dye generating layer is coated at 1.40 g/m^2 of gelatin, 0.53 g/m^2 of coupler Y-1 and 0.38 g/m^2 of Ag. The photographic development and thermal processing is as described in example 2. […]

[3] = heat activated transfer of image dye (coupler M-1, developer CD-3) through gelatin interlayer to polymeric dye receiver, Status A green density
Protocol: The following 17 examples are prepared to examine the ability of materials to effect the transfer of image dye through intervening layers of gelatin binder into a polymeric dye receiver layer and are described by the coating format shown in FIG. 2. The first layer (FIG. 2, layer 14) contains gelatin binder and the material to be tested as a thermal solvent while the upper layer (FIG. 2, layer 16) contains the image generating chemistry comprising a silver chloride emulsion and a dispersion of a dye generating coupler in a gelatin binder. A third, protective overcoat, layer (FIG. 2, layer 15) containing gelatin and hardener is applied over the first two gelatin test layers.
Examples 1 and 2 describe in detail the preparation of the solutions and dispersions used in these examples. Examples 3 and 4 describe the same film samples processed in a second developer. Example 1 contains no added material in the first gelatin layer. Example 2 is an example of a compound of our invention according to formula I.
Gelatin Interlayer Melt Preparation. This is an interlayer consisting of only gelatin that serves as a control for comparison of the effect of added materials on transfer of heat-transferable dyes through gelatin layers. […]

| Structure (SMILES) | transfer of the integral dye density to receiver [1] | transfer of the integral dye density to the receiver layer [2] | transfer of the dye density in the original image ([3]; 1-pass) [%] | transfer of the dye density in the original image ([3]; 3-pass) [%] |
| --- | --- | --- | --- | --- |
| CCCCCCCCCCCCc1ccc(O)cc1 [CS-1] | less than 6% | less than 4% | – | – |
| CCCCCCCCCCS(=O)(=O)c1ccc(O)cc1 [TS-1, 4-n-Decylsulfonylphenol] | – | – | 45 | 71 |
